Where two headings read alike, the source gives them in different places.
Columns and labels:
[1] = PAMPA assay (BBB penetration); details: for BBB penetration estimation CNS (+/−): class from PAMPA Pe; for Pe ± SEM: PAMPA, PBS pH 7.4, n = 3
Text: Furthermore, we experimentally determined the ability of 12 highlighted hBChE inhibitors to pass through the BBB using a parallel artificial membrane permeation assay (PAMPA) as described by Di et al.[65] […] The methodology was validated on a set of compounds (positive and negative controls) recognized for their activity in the CNS (Table 3).
In this study, it has been used as a non-cell-based in vitro assay carried out in a coated 96-well membrane filter. The filter membrane of the donor plate was coated with PBL (polar brain lipid, Avanti, USA) in dodecane (4 μl of 20 mg ml^−1 PBL in dodecane) and the acceptor well was filled with 300 μl of PBS (pH 7.4; VA). The tested compounds were dissolved first in DMSO and subsequently diluted with PBS (pH 7.4) to final concentrations of 50–100 μM in the donor wells. […] About 300 μL of the donor solution was added to the donor wells (VD) and the donor filter plate was carefully put on the acceptor plate so that the coated membrane was “in touch” with both the donor solution and acceptor buffer. In principle, the test compound diffused from the donor well through the lipid membrane (area = 0.28 cm^2) to the acceptor well. The concentration of the drug in both the donor and acceptor wells was assessed after 3, 4, 5, and 6 h of incubation in quadruplicate using the UV plate reader Spark (Tecan Group Ltd, Switzerland) at the maximum absorption wavelength of each compound. Besides that, a solution of theoretical compound concentration, simulating the equilibrium state established if the membrane were ideally permeable, was prepared and assessed as well. The concentration of the compounds in the donor and acceptor wells and equilibrium concentration were calculated from the standard curve and expressed as the permeability (Pe) according the equation: [drawing 10] where [drawing 11]

[2] = Cytotoxicity MTT assay, human neuroblastoma cell line; details: SH-SY5Y neuroblastoma cells
in vitro = details: human, HepG2 hepatocellular carcinoma cells
Experimental: (§1) For passaging, the cells were treated with trypsin/EDTA (Sigma-Aldrich, St. Louis, USA) at 37 °C and then harvested. For cytotoxicity evaluation, the cells treated with the studied substances were used, while untreated HepG2 cells served as the control group. The cells were seeded in a 96-well plate at a density of 5 × 10^4 cells per well and incubated for 24 hours. All tested compounds were dissolved in DMSO to prepare 10 mM stock solutions and subsequently diluted to the desired concentration just before the cell treatment (the highest DMSO concentration used was 0.5% v/v). Positive and negative controls were included, as well, and the activity of all the samples was determined in triplicate. Plates were incubated for 24 h in a humidified atmosphere containing 5% CO2 at 37 °C. […] Afterwards, the formazan crystals were dissolved in DMSO, and the absorbance of samples was recorded at 570 nm (BioTek, Synergy Neo2 Multi-Mode Reader NEO2SMALPHAB; BioTek, Winooski, VT, USA). IC50 values were calculated by nonlinear regression from a semi-logarithmic plot of incubation concentration versus percentage of absorbance relative to untreated controls using GraphPad Prism software (version 9; GraphPad Software, Inc., La Jolla, CA, USA).

[3] = target: T1, recombinant BChE (hBChE, E.C. 3.1.1.8) (Homo sapiens, UniProt P06276); experiment: biochemical; type: biochemical; details: for IC50: mean ± SEM of three independent measurements, each in triplicate; for inhibition at 10 µM: read-out: % inhibition of hBChE ± SEM
T1 construct: purchased Sigma-Aldrich, Prague, Czech Republic
Experimental: The activities of hAChE and hBChE were determined using a modified Ellman's method, as described in ref. [56] and [62] against recombinant AChE (hAChE, E.C. 3.1.1.7) and recombinant BChE (hBChE, E.C. 3.1.1.8), both of which were purchased from Sigma-Aldrich, Prague, Czech Republic. […] The other compounds used, including the phosphate buffer solution (PBS, pH = 7.4), 5,5′-dithio-bis(2-nitrobenzoic) acid (Ellman's reagent, DTNB), acetylthiocholine (ATChI), and butyrylthiocholine (BTChI), were commercially available and purchased from Sigma-Aldrich in Prague, Czech Republic. In brief, the corresponding enzyme (8.3 μL), 5 mM DTNB (283 μL), and the sample dilution in dimethyl sulfoxide (DMSO) at various concentrations (8.3 μL) were added to 96-well microplates (BRAND GMBH + CO KG, Wertheim, Germany) and pre-incubated for 5 minutes in the assay medium. The reaction was initiated by adding 10 mM substrate (ATChI or BTChI, 33.3 μL). […] Each measurement was repeated in triplicate. The percentage of inhibition was calculated using the following formula: [drawing 8] where ΔABl represents the increase in absorbance of the blank sample, and ΔASa represents the increase in absorbance of the measured sample. […] Microsoft Excel (Redmond, WA, USA) and GraphPad Prism version 7 for Windows (GraphPad Software, San Diego, CA, USA) were used for the statistical data evaluation.

HepG2 cells = details: human, 24 h
Experimental: as §1

[4] = tested on: recombinant AChE (hAChE, E.C. 3.1.1.7); parameters: method as in PMID 32455879, PMID 36152726; details: template alkaloid, Fig. 1; cited from earlier work
[5] = tested at 10 μM compound concentration

T1 sequence (P06276 29-602): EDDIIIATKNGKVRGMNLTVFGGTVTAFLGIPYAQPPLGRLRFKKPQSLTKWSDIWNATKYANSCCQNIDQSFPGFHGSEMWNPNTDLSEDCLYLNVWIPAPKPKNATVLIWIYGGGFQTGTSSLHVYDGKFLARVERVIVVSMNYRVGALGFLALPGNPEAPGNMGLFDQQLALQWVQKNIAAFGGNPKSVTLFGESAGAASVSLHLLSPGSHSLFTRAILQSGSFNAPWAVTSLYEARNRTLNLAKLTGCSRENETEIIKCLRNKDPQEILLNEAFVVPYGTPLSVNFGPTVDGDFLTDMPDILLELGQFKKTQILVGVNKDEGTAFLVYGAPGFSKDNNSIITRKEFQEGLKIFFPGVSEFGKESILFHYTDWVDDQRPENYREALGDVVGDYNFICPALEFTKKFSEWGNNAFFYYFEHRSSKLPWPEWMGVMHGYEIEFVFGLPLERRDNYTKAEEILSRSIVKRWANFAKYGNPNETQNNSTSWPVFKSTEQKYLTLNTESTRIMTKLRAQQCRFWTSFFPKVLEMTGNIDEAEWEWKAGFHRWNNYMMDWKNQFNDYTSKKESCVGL

| SMILES | BBB penetration estimation CNS (+/−) [1] | IC50 [3] [µM] | inhibition at 10 µM [3, 5] [%] | Pe ± SEM [1] | other results |
| --- | --- | --- | --- | --- | --- |
| NS(=O)(=O)c1cc2c(cc1Cl)N=CNS2(=O)=O [Chlorothiazide, reference compound] | CNS − (CNS (−) (low BBB permeation predicted): Pe (×10^−6 cm s^−1) < 2.0) | – | – | – | – |
| C=CCOc1ccc(CCN(CC=C)Cc2ccc(OC)c(OCc3ccccc3)c2)cc1 [Compound 1, reference compound] | – | – | – | – | IC50 at 24 h [2]: > 125 µM |
| Oc1ccc(CCNCc2cccc(OCc3ccccc3)c2)cc1 [Compound 4, 4-[2-({[3-(Benzyloxy)phenyl]methyl}amino)ethyl]phenol] | CNS + (CNS (+) (high BBB permeation predicted): Pe (×10^−6 cm s^−1) > 4.0) | 0.193 ± 0.055 | 96 ± 0.8 | 14.0 ± 0.4 ×10^−6 cm s^−1 | IC50 at 24 h (in vitro): 60 ± 4 µM; IC50 at 24 h [2]: 21 ± 2.4 µM; Safety index (HepG2 cells): 310 |
| COc1ccccc1CCNCc1cccc(OCc2ccccc2)c1 [Compound 5, {[3-(Benzyloxy)phenyl]methyl}[2-(2-methoxyphenyl)ethyl]amine] | CNS + (CNS (+) (high BBB permeation predicted): Pe (×10^−6 cm s^−1) > 4.0) | 0.4 ± 0.1 | 94 ± 0.4 | 6.2 ± 0.7 ×10^−6 cm s^−1 | IC50 at 24 h (in vitro): 52 ± 10 µM; IC50 at 24 h [2]: 16 ± 2.8 µM; Safety index (HepG2 cells): 130 |
| c1ccc(CNCc2cccc(OCc3ccccc3)c2)cc1 [Compound 14, Benzyl({[3-(benzyloxy)phenyl]methyl})amine] | CNS + (CNS (+) (high BBB permeation predicted): Pe (×10^−6 cm s^−1) > 4.0) | 0.5 ± 0.1 | 92 ± 0.3 | 9.8 ± 2.9 ×10^−6 cm s^−1 | – |
| CC(CNCc1cccc(OCc2ccccc2)c1)c1ccccc1 (stereo not drawn) [Compound 18, {[3-(Benzyloxy)phenyl]methyl}(2-phenylpropyl)amine] | CNS + (CNS (+) (high BBB permeation predicted): Pe (×10^−6 cm s^−1) > 4.0) | 0.188 ± 0.023 | 96 ± 0.3 | 8.1 ± 0.6 ×10^−6 cm s^−1 | IC50 at 24 h (in vitro): 55 ± 6.9 µM; IC50 at 24 h [2]: 36 ± 1.4 µM; Safety index (HepG2 cells): 290 |
| CCN(Cc1ccccc1)Cc1cccc(OCc2ccccc2)c1 [Compound 19, Benzyl({[3-(benzyloxy)phenyl]methyl})ethylamine] | CNS + (CNS (+) (high BBB permeation predicted): Pe (×10^−6 cm s^−1) > 4.0) | 0.5 ± 0.1 | 88 ± 1.1 | 36 ± 14 ×10^−6 cm s^−1 | – |
| CCN(CCc1ccccc1)Cc1cccc(OCc2ccccc2)c1 [Compound 21, {[3-(Benzyloxy)phenyl]methyl}(ethyl)(2-phenylethyl)amine] | CNS + (CNS (+) (high BBB permeation predicted): Pe (×10^−6 cm s^−1) > 4.0) | 0.4 ± 0.1 | 91 ± 0.4 | 21.0 ± 0.6 ×10^−6 cm s^−1 | – |
| CCCN(CCCc1ccccc1)Cc1cccc(OCc2ccccc2)c1 [Compound 25, {[3-(Benzyloxy)phenyl]methyl}(3-phenylpropyl)propylamine] | CNS + (CNS (+) (high BBB permeation predicted): Pe (×10^−6 cm s^−1) > 4.0) | 0.54 ± 0.03 | 89 ± 0.8 | 33.0 ± 6.8 ×10^−6 cm s^−1 | – |
| Oc1ccc(CCNCc2ccc(OCc3ccccc3)cc2)cc1 [Compound 28, 4-[2-({[4-(Benzyloxy)phenyl]methyl}amino)ethyl]phenol] | CNS + (CNS (+) (high BBB permeation predicted): Pe (×10^−6 cm s^−1) > 4.0) | 0.171 ± 0.063 | 97 ± 0.3 | 10.0 ± 0.5 ×10^−6 cm s^−1 | IC50 at 24 h (in vitro): 85 ± 12 µM; IC50 at 24 h [2]: 13 ± 1.2 µM; Safety index (HepG2 cells): 500 |
| Clc1ccc(CCNCc2ccc(OCc3ccccc3)cc2)cc1 [Compound 32, {[4-(Benzyloxy)phenyl]methyl}[2-(4-chlorophenyl)ethyl]amine] | – | 0.7 ± 0.2 | 85 ± 1 | – | – |
| CCCOc1ccc(CCN(CCC)Cc2ccc(OCc3ccccc3)cc2)cc1 [Compound 34, {[4-(Benzyloxy)phenyl]methyl}[2-(4-propoxyphenyl)ethyl]propylamine] | – | > 10 | 30 ± 0.9 | – | hBChE inhibitory activity (in words) [3]: complete loss of hBChE inhibitory activity |
| c1ccc(CNCc2ccc(OCc3ccccc3)cc2)cc1 [Compound 35, Benzyl({[4-(benzyloxy)phenyl]methyl})amine] | – | 2.8 ± 0.6 | 60 ± 0.1 | – | – |
| c1ccc(COc2ccc(CNCc3ccccn3)cc2)cc1 [Compound 36, {[4-(Benzyloxy)phenyl]methyl}[(pyridin-2-yl)methyl]amine] | – | > 10 | 18 ± 0.5 | – | – |
| c1ccc(CCNCc2ccc(OCc3ccccc3)cc2)cc1 [Compound 37, {[4-(Benzyloxy)phenyl]methyl}(2-phenylethyl)amine] | – | 2 ± 0.3 | 81 ± 1.4 | – | – |
| c1ccc(COc2ccc(CNCCc3ccccn3)cc2)cc1 [Compound 38, {[4-(Benzyloxy)phenyl]methyl}[2-(pyridin-2-yl)ethyl]amine] | – | > 10 | 23 ± 1 | – | – |
| c1ccc(CCCNCc2ccc(OCc3ccccc3)cc2)cc1 [Compound 39, {[4-(Benzyloxy)phenyl]methyl}(3-phenylpropyl)amine] | – | 0.7 ± 0.1 | 90 ± 0.3 | – | – |
| c1ccc(CCCCNCc2ccc(OCc3ccccc3)cc2)cc1 [Compound 40, {[4-(Benzyloxy)phenyl]methyl}(4-phenylbutyl)amine] | – | 0.8 ± 0.1 | 85 ± 0.6 | – | – |
| CC(CNCc1ccc(OCc2ccccc2)cc1)c1ccccc1 (stereo not drawn) [Compound 41, {[4-(Benzyloxy)phenyl]methyl}(2-phenylpropyl)amine] | – | 1.6 ± 0.1 | 88 ± 1 | – | – |
| CC(CCc1ccccc1)NCc1ccc(OCc2ccccc2)cc1 (stereo not drawn) [Compound 42, {[4-(Benzyloxy)phenyl]methyl}(4-phenylbutan-2-yl)amine] | CNS + (CNS (+) (high BBB permeation predicted): Pe (×10^−6 cm s^−1) > 4.0) | 0.5 ± 0.1 | 92 ± 0.5 | 22.0 ± 4.2 ×10^−6 cm s^−1 | – |
| CCN(Cc1ccccc1)Cc1ccc(OCc2ccccc2)cc1 [Compound 43, Benzyl({[4-(benzyloxy)phenyl]methyl})ethylamine] | – | > 10 | 50 ± 1.1 | – | – |
| CCCN(Cc1ccccc1)Cc1ccc(OCc2ccccc2)cc1 [Compound 44, Benzyl({[4-(benzyloxy)phenyl]methyl})propylamine] | – | > 10 | 18 ± 0.3 | – | – |
| CCCN(CCCc1ccccc1)Cc1ccc(OCc2ccccc2)cc1 [Compound 45, {[4-(Benzyloxy)phenyl]methyl}(3-phenylpropyl)propylamine] | CNS + (CNS (+) (high BBB permeation predicted): Pe (×10^−6 cm s^−1) > 4.0) | 0.29 ± 0.04 | 93 ± 0.8 | 25.0 ± 2.9 ×10^−6 cm s^−1 | – |
| CCN(Cc1ccc(OCc2ccccc2)cc1)C(C)CCc1ccccc1 (stereo not drawn) [Compound 46, {[4-(Benzyloxy)phenyl]methyl}(ethyl)(4-phenylbutan-2-yl)amine] | CNS + (CNS (+) (high BBB permeation predicted): Pe (×10^−6 cm s^−1) > 4.0) | 0.5 ± 0.3 | 87 ± 1.5 | 36.0 ± 2.0 ×10^−6 cm s^−1 | – |
| CCCN(Cc1ccc(OCc2ccccc2)cc1)C(C)CCc1ccccc1 (stereo not drawn) [Compound 47, {[4-(Benzyloxy)phenyl]methyl}(4-phenylbutan-2-yl)propylamine] | – | 1 ± 0.3 | 93 ± 0.2 | – | – |
| CNC(=O)Oc1ccc2c(c1)[C@]1(C)CCN(C)[C@@H]1N2C [Eserine, reference compound] | – | – | – | – | inhibition at 10 µM [3]: 96 ± 0.3% |
| COc1ccc2c3c1O[C@H]1C[C@@H](O)C=C[C@@]31CCN(C)C2 [Galantamine, reference compound] | – | – | – | – | inhibition at 10 µM [3]: 29 ± 3.5% |
| Nc1c2c(nc3ccccc13)CCCC2 [Tacrine, reference compound] | CNS + (CNS (+) (high BBB permeation predicted): Pe (×10^−6 cm s^−1) > 4.0) | – | – | – | – |
| CN(CCc1ccc(O)cc1)Cc1cc2c(cc1-c1cccc3c1N(C)CC3)OCO2 [carltonine B] | – | – | – | – | IC50 [4]: > 100 µM |

Reference: article PMC11110763, “Carltonine-derived compounds for targeted butyrylcholinesterase inhibition” (RSC Medicinal Chemistry, 2024)
